# Reference: patent US20260216207A1, “7-CARBONYLSTAUROSPORINE DERIVATIVE, PREPARATION METHOD THEREFOR, AND USE THEREOF” (HANGZHOU KEXING BIOCHEM. CO., LTD., priority 2023, published 2026)
# pIC50: −log10 of the molar value. Where two headings read alike, the source gives them in different places.
# Assays:
# Assay type in all cases: biochemical
# [1] = target: PIM-1 kinase (Homo sapiens, UniProt P11309); experiment: HTRF KinEASE kinase assay, PIM-1 inhibitory activity
# Text: Inhibitory activities against PIM-1, TRKA, TRKB, FLT3, PKCδ, PKCε, PKCη, PAK4, PLK1, ROCK2, and IKKβ kinases were all determined using an HTRF®KinEASE™ kinase assay kit based on a time-resolved fluorescence technology. 7-carbonylstaurosporine (7OSTA) and TP-3654 were used as positive controls, and 3 duplicate wells were set in parallel. Specific operation steps are as follows. • (1) A kinase buffer was formulated and then used to formulate compounds to be tested, a positive drug, a substrate, kinases, and adenosine triphosphate (ATP). • (2) 2 μL of the substrate, 2 μL of the kinases (the kinases were not added in a negative control group), 4 μL of the compounds to be tested or the positive drug (4 μL of a buffer was added in a positive control group, and 6 μL of a buffer was added in the negative control group), and 2 μL of the ATP were sequentially added into each well of a 384-well microplate, and the microplate was sealed with a membrane and then centrifuged for uniform mixing. • (3) According to different types of the kinases, incubation was performed in an incubator at 37° C. for a specific time. • (4) A detection solution was formulated using XL-665, an antibody, and a detection buffer, 10 µL of the detection solution was added into each well, the microplate was sealed with a membrane and then centrifuged for uniform mixing, and standing was performed at room temperature for 1 hour. • (5) Fluorescence value intensities F1 and F2 at wavelengths of 620 nm and 665 nm were measured using a multifunctional microplate tester, respectively. A signal ratio was calculated as F2/F1×10000, and then an IC50 value was calculated using Graphpad Prism 8 software.
# [2] = target: TRKB (Homo sapiens, UniProt Q16620); experiment: HTRF KinEASE kinase assay, TRKB (kinase selectivity)
# Procedure: (§1) Inhibitory activities against PIM-1, TRKA, TRKB, FLT3, PKCδ, PKCε, PKCη, PAK4, PLK1, ROCK2, and IKKβ kinases were all determined using an HTRF®KinEASE™ kinase assay kit based on a time-resolved fluorescence technology. 7-carbonylstaurosporine (7OSTA) and TP-3654 were used as positive controls, and 3 duplicate wells were set in parallel. […] A signal ratio was calculated as F2/F1×10000, and then an IC50 value was calculated using Graphpad Prism 8 software.
# [3] = target: TRKA (Homo sapiens, UniProt P04629); experiment: HTRF KinEASE kinase assay, TRKA (kinase selectivity)
# Procedure: as §1
# [4] = target: T1, PKCε (Homo sapiens, UniProt Q02156); experiment: HTRF KinEASE kinase assay, PKCε (kinase selectivity)
# T1 sequence (Q02156 1-737): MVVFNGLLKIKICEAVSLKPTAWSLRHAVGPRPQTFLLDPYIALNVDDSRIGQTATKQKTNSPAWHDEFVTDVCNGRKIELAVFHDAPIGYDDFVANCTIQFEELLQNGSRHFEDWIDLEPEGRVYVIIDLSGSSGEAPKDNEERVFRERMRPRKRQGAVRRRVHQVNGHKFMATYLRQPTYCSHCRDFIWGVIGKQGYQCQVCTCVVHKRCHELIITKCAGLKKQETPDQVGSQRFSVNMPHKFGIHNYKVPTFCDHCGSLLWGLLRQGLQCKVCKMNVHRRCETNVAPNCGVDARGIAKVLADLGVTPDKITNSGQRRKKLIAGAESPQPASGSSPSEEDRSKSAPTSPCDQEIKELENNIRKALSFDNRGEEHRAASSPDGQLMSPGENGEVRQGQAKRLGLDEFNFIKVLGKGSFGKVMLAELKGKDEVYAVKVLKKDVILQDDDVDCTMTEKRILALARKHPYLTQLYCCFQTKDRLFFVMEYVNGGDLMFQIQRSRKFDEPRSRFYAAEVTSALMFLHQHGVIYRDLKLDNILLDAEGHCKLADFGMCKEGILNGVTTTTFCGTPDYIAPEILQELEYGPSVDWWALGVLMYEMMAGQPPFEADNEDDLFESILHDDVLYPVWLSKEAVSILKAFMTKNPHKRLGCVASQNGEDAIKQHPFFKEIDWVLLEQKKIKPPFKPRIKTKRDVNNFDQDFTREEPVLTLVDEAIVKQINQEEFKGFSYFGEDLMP
# Procedure: as §1
# [5] = target: PAK4 (Homo sapiens, UniProt O96013); experiment: HTRF KinEASE kinase assay, PAK4 (kinase selectivity)
# Procedure: as §1
# [6] = target: PKCη (Homo sapiens, UniProt P24723); experiment: HTRF KinEASE kinase assay, PKCη (kinase selectivity)
# Procedure: as §1
# [7] = target: T2, FLT3 (Homo sapiens, UniProt P36888); experiment: HTRF KinEASE kinase assay, FLT3 (kinase selectivity)
# T2 sequence (P36888 27-993): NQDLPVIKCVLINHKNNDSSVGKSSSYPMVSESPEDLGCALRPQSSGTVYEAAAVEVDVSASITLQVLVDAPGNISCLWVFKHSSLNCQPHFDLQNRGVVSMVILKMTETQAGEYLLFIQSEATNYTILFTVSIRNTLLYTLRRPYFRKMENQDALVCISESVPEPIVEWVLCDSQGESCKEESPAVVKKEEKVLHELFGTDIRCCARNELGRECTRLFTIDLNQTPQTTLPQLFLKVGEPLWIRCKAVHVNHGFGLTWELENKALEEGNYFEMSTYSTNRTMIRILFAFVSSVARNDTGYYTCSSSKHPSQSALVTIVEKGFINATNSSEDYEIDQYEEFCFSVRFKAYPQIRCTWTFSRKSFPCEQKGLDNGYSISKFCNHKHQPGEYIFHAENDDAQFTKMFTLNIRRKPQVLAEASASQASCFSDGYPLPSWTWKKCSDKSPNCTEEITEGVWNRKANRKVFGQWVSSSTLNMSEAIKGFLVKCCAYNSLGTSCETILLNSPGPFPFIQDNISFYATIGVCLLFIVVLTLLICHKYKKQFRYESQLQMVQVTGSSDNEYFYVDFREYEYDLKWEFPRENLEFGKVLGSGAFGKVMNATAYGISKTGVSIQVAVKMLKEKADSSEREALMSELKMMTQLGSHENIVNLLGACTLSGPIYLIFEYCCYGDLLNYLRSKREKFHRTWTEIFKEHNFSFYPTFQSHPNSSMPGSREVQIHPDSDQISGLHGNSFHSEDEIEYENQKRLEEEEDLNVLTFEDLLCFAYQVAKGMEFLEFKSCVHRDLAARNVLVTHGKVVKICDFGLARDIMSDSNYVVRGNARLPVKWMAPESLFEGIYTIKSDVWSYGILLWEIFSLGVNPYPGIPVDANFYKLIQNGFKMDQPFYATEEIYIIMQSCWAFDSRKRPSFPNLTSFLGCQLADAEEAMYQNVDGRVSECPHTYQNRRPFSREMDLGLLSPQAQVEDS
# Procedure: as §1
# [8] = target: T3, IKKβ (Homo sapiens, UniProt O14920); experiment: HTRF KinEASE kinase assay, IKKβ (kinase selectivity)
# T3 sequence (O14920 1-756): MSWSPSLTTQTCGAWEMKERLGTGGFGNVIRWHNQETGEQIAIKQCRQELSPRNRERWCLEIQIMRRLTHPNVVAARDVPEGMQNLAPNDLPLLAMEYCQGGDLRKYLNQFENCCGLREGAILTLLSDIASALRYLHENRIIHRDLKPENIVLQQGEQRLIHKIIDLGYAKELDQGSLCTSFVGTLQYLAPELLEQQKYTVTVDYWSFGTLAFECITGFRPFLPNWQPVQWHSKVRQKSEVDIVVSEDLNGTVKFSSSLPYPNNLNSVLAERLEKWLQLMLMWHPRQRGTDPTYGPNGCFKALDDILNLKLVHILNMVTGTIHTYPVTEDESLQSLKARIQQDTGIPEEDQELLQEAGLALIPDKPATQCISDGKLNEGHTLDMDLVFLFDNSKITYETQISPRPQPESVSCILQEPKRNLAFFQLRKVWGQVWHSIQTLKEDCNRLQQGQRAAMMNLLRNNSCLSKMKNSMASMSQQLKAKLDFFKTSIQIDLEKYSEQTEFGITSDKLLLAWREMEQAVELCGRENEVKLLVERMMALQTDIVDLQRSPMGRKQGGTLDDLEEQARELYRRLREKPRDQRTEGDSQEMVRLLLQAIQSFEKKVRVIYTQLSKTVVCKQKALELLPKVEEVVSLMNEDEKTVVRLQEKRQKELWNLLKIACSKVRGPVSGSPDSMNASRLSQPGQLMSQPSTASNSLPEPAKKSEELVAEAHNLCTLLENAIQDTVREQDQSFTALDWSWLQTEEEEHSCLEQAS
# Procedure: as §1
# [9] = target: PKCδ (Homo sapiens, UniProt Q05655); experiment: HTRF KinEASE kinase assay, PKCδ (kinase selectivity)
# Procedure: as §1
# [10] = target: ROCK2 (Homo sapiens, UniProt O75116); experiment: HTRF KinEASE kinase assay, ROCK2 (kinase selectivity)
# Procedure: as §1
# [11] = target: PLK1 (Homo sapiens, UniProt P53350); experiment: HTRF KinEASE kinase assay, PLK1 (kinase selectivity)
# Procedure: as §1
# [12] = HTRF KinEASE kit, 3 duplicate wells, read-out: PIM-1 kinase inhibitory activity (IC50)
# PIM-1 kinase, sequence (P11309 whole entry): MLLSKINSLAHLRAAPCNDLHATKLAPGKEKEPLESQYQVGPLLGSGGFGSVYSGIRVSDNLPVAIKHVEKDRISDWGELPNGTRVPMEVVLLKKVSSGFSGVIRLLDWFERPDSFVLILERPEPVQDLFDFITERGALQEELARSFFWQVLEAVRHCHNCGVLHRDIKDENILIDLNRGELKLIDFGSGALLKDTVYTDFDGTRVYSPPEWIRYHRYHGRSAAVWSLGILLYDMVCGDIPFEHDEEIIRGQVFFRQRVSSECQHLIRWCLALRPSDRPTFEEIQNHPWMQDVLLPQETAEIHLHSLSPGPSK
# ROCK2, sequence (O75116 whole entry, species assumed): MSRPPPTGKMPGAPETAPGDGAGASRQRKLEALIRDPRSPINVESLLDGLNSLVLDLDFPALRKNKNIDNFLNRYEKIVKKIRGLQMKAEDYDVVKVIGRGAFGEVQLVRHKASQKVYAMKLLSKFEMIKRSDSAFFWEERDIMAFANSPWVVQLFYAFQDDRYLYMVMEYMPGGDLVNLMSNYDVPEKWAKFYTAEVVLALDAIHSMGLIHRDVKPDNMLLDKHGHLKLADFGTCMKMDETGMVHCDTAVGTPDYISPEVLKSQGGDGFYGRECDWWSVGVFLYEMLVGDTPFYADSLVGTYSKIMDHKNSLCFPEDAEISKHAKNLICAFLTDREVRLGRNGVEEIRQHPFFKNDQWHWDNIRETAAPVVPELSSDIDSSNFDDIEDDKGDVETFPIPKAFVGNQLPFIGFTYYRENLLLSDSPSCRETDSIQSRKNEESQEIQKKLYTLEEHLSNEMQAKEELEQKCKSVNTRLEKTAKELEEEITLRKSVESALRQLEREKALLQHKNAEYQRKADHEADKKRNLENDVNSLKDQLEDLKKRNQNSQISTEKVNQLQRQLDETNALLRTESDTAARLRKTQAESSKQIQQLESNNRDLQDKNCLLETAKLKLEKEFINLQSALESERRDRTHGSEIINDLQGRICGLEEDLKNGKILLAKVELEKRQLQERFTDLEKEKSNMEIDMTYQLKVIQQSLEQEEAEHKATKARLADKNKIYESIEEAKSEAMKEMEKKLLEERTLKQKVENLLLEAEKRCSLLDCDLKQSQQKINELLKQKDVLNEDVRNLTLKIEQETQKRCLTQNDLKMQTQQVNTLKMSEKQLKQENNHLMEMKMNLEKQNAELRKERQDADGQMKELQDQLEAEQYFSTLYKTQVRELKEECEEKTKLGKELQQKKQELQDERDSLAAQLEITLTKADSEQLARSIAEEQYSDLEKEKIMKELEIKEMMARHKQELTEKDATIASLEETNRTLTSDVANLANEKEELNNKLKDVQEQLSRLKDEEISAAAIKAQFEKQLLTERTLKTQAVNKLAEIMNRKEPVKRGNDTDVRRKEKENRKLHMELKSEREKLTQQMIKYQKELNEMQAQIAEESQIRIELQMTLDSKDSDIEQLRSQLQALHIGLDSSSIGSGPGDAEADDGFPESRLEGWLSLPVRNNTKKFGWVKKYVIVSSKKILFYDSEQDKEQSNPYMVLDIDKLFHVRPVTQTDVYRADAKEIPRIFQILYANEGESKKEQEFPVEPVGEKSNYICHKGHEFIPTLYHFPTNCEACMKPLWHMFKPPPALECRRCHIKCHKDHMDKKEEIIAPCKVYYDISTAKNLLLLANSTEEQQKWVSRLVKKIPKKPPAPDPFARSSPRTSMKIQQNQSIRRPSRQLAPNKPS
# PAK4, sequence (O96013 whole entry, species assumed): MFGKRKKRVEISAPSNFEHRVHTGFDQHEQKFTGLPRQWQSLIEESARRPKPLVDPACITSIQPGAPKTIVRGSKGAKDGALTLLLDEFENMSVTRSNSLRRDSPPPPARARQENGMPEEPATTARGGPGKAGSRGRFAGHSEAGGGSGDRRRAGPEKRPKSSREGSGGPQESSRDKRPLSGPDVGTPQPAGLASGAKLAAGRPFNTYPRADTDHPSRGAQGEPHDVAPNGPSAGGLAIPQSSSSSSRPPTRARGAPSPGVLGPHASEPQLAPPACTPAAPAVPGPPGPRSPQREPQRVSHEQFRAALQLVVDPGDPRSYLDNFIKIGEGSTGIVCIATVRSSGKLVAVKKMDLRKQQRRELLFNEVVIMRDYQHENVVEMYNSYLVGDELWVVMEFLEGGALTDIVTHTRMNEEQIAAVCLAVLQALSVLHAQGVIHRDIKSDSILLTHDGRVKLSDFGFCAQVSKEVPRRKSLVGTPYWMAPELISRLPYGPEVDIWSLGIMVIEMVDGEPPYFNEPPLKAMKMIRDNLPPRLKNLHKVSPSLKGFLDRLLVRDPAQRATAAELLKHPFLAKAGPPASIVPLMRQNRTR
# PLK1, sequence (P53350 whole entry, species assumed): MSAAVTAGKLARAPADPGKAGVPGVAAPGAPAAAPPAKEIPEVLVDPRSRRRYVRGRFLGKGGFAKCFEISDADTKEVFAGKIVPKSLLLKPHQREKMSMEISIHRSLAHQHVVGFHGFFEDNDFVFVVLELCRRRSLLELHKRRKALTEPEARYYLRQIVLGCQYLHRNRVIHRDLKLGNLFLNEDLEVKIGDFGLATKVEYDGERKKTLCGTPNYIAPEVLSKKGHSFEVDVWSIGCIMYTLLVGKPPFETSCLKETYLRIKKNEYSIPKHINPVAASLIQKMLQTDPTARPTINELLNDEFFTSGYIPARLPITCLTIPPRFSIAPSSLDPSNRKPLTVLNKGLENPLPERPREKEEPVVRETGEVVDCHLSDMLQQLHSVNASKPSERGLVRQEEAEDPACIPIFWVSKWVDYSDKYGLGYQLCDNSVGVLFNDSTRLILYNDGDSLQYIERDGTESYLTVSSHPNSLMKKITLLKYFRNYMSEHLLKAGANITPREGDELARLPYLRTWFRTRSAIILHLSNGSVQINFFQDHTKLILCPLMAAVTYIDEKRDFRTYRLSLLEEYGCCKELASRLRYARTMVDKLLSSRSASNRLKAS
# TRKB, sequence (Q16620 32-822, species assumed): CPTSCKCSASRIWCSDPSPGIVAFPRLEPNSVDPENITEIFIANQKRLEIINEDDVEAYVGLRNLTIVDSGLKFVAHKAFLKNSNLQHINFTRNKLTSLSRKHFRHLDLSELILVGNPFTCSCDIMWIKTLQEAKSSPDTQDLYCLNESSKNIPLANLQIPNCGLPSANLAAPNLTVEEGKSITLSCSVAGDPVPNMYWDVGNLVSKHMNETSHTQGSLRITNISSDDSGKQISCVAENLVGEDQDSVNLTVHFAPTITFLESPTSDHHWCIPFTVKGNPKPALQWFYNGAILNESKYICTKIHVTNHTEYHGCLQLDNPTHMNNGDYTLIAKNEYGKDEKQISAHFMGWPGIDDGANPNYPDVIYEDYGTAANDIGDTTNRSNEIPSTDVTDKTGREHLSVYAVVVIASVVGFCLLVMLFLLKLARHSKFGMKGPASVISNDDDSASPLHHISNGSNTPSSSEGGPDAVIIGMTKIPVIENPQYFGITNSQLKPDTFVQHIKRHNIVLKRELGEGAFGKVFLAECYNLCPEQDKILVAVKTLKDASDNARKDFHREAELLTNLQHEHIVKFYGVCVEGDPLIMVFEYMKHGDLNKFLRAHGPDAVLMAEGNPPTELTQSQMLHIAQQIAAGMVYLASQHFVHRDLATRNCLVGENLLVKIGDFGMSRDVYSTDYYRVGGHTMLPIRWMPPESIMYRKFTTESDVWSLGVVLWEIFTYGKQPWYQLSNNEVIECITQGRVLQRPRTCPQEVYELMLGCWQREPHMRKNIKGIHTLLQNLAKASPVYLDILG
# PKCη, sequence (P24723 whole entry): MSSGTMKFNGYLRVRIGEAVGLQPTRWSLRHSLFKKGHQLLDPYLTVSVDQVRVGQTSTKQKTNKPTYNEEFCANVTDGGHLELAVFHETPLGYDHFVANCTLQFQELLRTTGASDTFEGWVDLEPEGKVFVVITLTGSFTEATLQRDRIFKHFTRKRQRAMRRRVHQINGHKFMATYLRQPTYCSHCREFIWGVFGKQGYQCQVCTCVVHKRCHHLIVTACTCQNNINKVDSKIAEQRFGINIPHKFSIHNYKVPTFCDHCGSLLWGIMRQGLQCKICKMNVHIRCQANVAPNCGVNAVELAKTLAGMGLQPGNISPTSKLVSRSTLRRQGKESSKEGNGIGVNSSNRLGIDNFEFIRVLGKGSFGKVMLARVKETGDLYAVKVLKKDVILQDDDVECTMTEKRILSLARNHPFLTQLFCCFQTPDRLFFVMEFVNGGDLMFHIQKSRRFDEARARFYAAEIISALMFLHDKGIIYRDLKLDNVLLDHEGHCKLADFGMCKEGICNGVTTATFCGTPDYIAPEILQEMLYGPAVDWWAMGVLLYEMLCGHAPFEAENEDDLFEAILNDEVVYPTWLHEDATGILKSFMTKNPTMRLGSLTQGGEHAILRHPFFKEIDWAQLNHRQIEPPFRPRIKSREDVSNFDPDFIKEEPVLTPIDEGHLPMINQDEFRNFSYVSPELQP
# PKCδ, sequence (Q05655 whole entry): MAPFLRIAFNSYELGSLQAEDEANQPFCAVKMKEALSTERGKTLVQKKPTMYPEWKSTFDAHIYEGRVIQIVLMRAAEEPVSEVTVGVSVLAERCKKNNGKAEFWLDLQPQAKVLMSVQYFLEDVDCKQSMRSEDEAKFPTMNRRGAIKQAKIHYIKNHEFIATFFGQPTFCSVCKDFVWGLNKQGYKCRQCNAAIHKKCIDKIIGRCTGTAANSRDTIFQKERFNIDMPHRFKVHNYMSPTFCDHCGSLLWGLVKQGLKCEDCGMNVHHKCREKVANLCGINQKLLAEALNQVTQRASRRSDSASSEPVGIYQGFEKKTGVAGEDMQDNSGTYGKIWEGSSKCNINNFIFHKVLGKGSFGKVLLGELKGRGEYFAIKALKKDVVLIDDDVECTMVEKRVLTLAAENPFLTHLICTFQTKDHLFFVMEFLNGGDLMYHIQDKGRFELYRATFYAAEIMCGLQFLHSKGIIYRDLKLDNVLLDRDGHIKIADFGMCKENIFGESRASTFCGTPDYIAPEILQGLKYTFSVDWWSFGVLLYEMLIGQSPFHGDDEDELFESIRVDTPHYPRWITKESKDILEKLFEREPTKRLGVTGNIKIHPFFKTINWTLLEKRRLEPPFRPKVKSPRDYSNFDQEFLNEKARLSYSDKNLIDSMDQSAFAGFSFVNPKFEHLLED
"pIC50 [1, 12]",Structure (SMILES),further results
7.37,CO[C@@H]1[C@H](N(C)C(=O)CCC(=O)O)C[C@H]2O[C@]1(C)n1c3ccccc3c3c4c(c5c6ccccc6n2c5c31)C(=O)NC4=O [Compound 12],–
< 6.00,CCCCCCC(=O)N(C)[C@@H]1C[C@H]2O[C@@](C)([C@@H]1OC)n1c3ccccc3c3c4c(c5c6ccccc6n2c5c31)C(=O)NC4=O [Compound 5],–
7.21,CO[C@@H]1[C@H](N(C)C(=O)CCCCC(=O)O)C[C@H]2O[C@]1(C)n1c3ccccc3c3c4c(c5c6ccccc6n2c5c31)C(=O)NC4=O [Compound 15],–
< 6.00,CCCCCCCC(=O)N(C)[C@@H]1C[C@H]2O[C@@](C)([C@@H]1OC)n1c3ccccc3c3c4c(c5c6ccccc6n2c5c31)C(=O)NC4=O [Compound 6],–
7.08,CCCC(=O)N(C)[C@@H]1C[C@H]2O[C@@](C)([C@@H]1OC)n1c3ccccc3c3c4c(c5c6ccccc6n2c5c31)C(=O)NC4=O [Compound 2],–
7.49,CO[C@@H]1[C@H](N(C)C(=O)CCC(=O)Nc2cc[nH]n2)C[C@H]2O[C@]1(C)n1c3ccccc3c3c4c(c5c6ccccc6n2c5c31)C(=O)NC4=O [Compound 18],–
< 6.00,CO[C@@H]1[C@H](N(C)C(=O)c2ccc3c(c2)OCO3)C[C@H]2O[C@]1(C)n1c3ccccc3c3c4c(c5c6ccccc6n2c5c31)C(=O)NC4=O [Compound 9],–
7.09,CO[C@@H]1[C@H](N(C)C(=O)C=C(C)C)C[C@H]2O[C@]1(C)n1c3ccccc3c3c4c(c5c6ccccc6n2c5c31)C(=O)NC4=O [Compound 10],–

# Second part, the molecule before the results:
Structure (SMILES),"pIC50 [1, 12]",further results
"CC(C)(O)[C@H]1CC[C@H](Nc2ccc3ncc(-c4cccc(C(F)(F)F)c4)n3n2)CC1 [TP-3654, reference compound]",7.51,–
CCC(=O)N(C)[C@@H]1C[C@H]2O[C@@](C)([C@@H]1OC)n1c3ccccc3c3c4c(c5c6ccccc6n2c5c31)C(=O)NC4=O [Compound 1],7.39,–
CO[C@@H]1[C@H](N(C)C(=O)CCCCCCC(=O)O)C[C@H]2O[C@]1(C)n1c3ccccc3c3c4c(c5c6ccccc6n2c5c31)C(=O)NC4=O [Compound 16],7.18,–
CCCCC(=O)N(C)[C@@H]1C[C@H]2O[C@@](C)([C@@H]1OC)n1c3ccccc3c3c4c(c5c6ccccc6n2c5c31)C(=O)NC4=O [Compound 3],< 6.00,–
"CN[C@@H]1C[C@H]2O[C@@](C)([C@@H]1OC)n1c3ccccc3c3c4c(c5c6ccccc6n2c5c31)C(=O)NC4=O [Compound 7OSTA, 7-carbonylstaurosporine]",–,pIC50 [2]: 8.62; pIC50 [3]: 9.40; pIC50 [1]: 8.27; pIC50 [4]: 8.64; pIC50 [5]: 7.43; pIC50 [6]: 8.68; pIC50 [7]: 7.82; pIC50 [8]: < 6.00; pIC50 [9]: 8.85; pIC50 [10]: 7.44; pIC50 [11]: 6.51
CO[C@@H]1[C@H](N(C)C(=O)C2CC2)C[C@H]2O[C@]1(C)n1c3ccccc3c3c4c(c5c6ccccc6n2c5c31)C(=O)NC4=O [Compound 7],6.35,–
CO[C@@H]1[C@H](N(C)C(=O)/C=C/c2ccccc2)C[C@H]2O[C@]1(C)n1c3ccccc3c3c4c(c5c6ccccc6n2c5c31)C(=O)NC4=O [Compound 11],< 6.00,–
CO[C@@H]1[C@H](N(C)C(=O)CSCC(=O)O)C[C@H]2O[C@]1(C)n1c3ccccc3c3c4c(c5c6ccccc6n2c5c31)C(=O)NC4=O [Compound 14],7.27,–
CO[C@@H]1[C@H](N(C)C(=O)c2cccs2)C[C@H]2O[C@]1(C)n1c3ccccc3c3c4c(c5c6ccccc6n2c5c31)C(=O)NC4=O [Compound 8],7.28,–
CCCCCC(=O)N(C)[C@@H]1C[C@H]2O[C@@](C)([C@@H]1OC)n1c3ccccc3c3c4c(c5c6ccccc6n2c5c31)C(=O)NC4=O [Compound 4],< 6.00,–
CO[C@@H]1[C@H](N(C)C(=O)CCCC(=O)O)C[C@H]2O[C@]1(C)n1c3ccccc3c3c4c(c5c6ccccc6n2c5c31)C(=O)NC4=O [Compound 13],7.41,–
